Assay results reported in patent US10760052B2, “Method of inhibiting tau phosphorylation” (priority 2012, dated 2020).
Read-outs that look alike come from different tables or passages of the source.

Biological target: T1, mu opiate receptor (MOR) (Rattus norvegicus, UniProt P33535)
T1 construct: from tissue; host or cells: striatum (membrane preparation)
Type: biochemical

[1] = [35S]GTPγS binding to Gαo in striatal membranes, compound 0.1 μM
[2] = [35S]GTPγS binding to Gαo in striatal membranes, compound 1 μM
[3] = [35S]GTPγS binding to Gαo in striatal membranes, compound 1 μM plus 1 μM β-funaltrexamine (MOR antagonist)
[4] = 0.1 μM compound, striatal membranes, Series C-2
[5] = 1 μM compound + 1 μM β-FNA (selective MOR antagonist), Series C-2
[6] = 1 μM compound, striatal membranes, Series C-2

T1 sequence (P33535 whole entry): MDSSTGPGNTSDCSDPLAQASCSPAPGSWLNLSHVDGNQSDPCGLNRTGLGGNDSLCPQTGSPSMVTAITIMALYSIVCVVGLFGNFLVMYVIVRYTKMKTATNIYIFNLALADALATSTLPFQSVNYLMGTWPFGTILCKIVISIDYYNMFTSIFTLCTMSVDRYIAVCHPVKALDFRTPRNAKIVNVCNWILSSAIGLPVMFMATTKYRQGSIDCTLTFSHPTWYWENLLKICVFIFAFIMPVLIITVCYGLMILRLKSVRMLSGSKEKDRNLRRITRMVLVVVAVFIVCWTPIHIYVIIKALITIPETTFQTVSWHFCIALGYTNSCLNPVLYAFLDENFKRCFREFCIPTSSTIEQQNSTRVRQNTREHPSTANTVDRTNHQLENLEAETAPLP

Row | Compound | % DAMGO (0.1 μM) [%] | % DAMGO (1 μM) [%] | % DAMGO + BFNA [%] | Concentration of FLNA-Binding Compound as Agonist 0.1 μM [1] [%] | Concentration of FLNA-Binding Compound as Agonist 1 μM [2] [%] | Concentration of FLNA-Binding Compound as Agonist 1 μM + BFNA [3] [%] | Concentration of FLNA-Binding Compound as Agonist 0.1 μM [%] | Concentration of FLNA-Binding Compound as Agonist 1 μM [%] | Concentration of FLNA-Binding Compound as Agonist 1 μM + BFNA [%] | [35S]GTPγS binding, FLNA-Binding Compound as Agonist at 0.1 μM [4] [%] | [35S]GTPγS binding, FLNA-Binding Compound as Agonist at 1 μM + BFNA [5] [%] | [35S]GTPγS binding, FLNA-Binding Compound as Agonist at 1 μM [6] [%] | [35S]GTPγS binding, FLNA-Binding Compound as Agonist at 0.1 μM [%] | [35S]GTPγS binding, FLNA-Binding Compound as Agonist at 1 μM [%] | [35S]GTPγS binding, FLNA-Binding Compound as Agonist at 1 μM + BFNA [%]
1 | CC1CCC(C(C)C)C(OCC(O)CN2CCN(CCN3CCOCC3)CC2)C1 (stereo not drawn) [Compound A0011] | 158.2 | 124.9 | 177.4 | 236.3 | 287.5 | 47.0 | – | – | – | – | – | – | – | – | –
2 | CC1CCC(C(C)C)C(OCC(O)Cn2ccc3ccccc32)C1 (stereo not drawn) [Compound A0078] | 124.9 | 92.3 | 274.2 | – | – | – | 250.5 | 289.9 | 147.8 | – | – | – | – | – | –
3 | COc1c2c(cc3c1C(CC(=O)CCc1ccc(O)cc1)[N+](C)(C)CC3)OCO2 (stereo not drawn) [Compound B0028] | 103.5 | 131.0 | 125.3 | 199.1 | 357.7 | 55.0 | – | – | – | – | – | – | – | – | –
4 | CC1CCC(C(C)C)C(OCC(O)CN2CCCCC2)C1 (stereo not drawn) [Compound A0005] | 105.0 | 89.6 | 45.1 | 179.7 | 239.2 | 23.5 | – | – | – | – | – | – | – | – | –
5 | COc1c2c(cc3c1C(CC(O)CCc1ccccc1)N(C)CC3)OCO2 (stereo not drawn) [Compound B0051] | 68.4 | 76.7 | 263.9 | 115.6 | 167.9 | 43.8 | – | – | – | – | – | – | – | – | –
6 | COc1ccc(S(=O)(=O)N2CCC3(CC2)OCCN3S(=O)(=O)c2ccc(OC)c(OC)c2)cc1OC [Compound C0049] | 73.5 | 90.1 | 184.1 | 106.6 | 210.0 | 81.0 | – | – | – | – | – | – | – | – | –
7 | CN(C)c1cccc(OCC(O)CN2CCc3ccccc3C2)c1 (stereo not drawn) [Compound A0050] | 77.0 | 68.6 | 109.6 | 151.0 | 189.3 | 81.0 | – | – | – | – | – | – | – | – | –
8 | COc1ccc(S(=O)(=O)N2CCOC23CCN(C(C)C)CC3)cc1 [Compound C0133M] | 83.2 | 96.6 | 152.4 | – | – | – | – | – | – | 139.4 | 72.4 | 214.8 | – | – | –
9 | CNc1ccc(S(=O)(=O)N2CCC3(CC2)OCCN3S(=O)(=O)c2ccc(NC)cc2)cc1 [Compound C0024] | 92.8 | 84.1 | 135.1 | 178.4 | 229.6 | 59.3 | – | – | – | – | – | – | – | – | –
10 | N#Cc1ccccc1S(=O)(=O)N1CCC2(CC1)OCCN2S(=O)(=O)c1ccccc1C#N [Compound C0004] | 72.1 | 85.4 | 99.7 | 122.0 | 228.4 | 65.8 | – | – | – | – | – | – | – | – | –
11 | CS(=O)(=O)c1ccc(S(=O)(=O)N2CCOC23CCN(CC2CC2)CC3)cc1 [Compound C0126M] | 108.5 | 119.3 | 228.4 | – | – | – | – | – | – | 181.8 | 108.5 | 265.3 | – | – | –
12 | Cc1ccc(S(=O)(=O)N2CCC3(CC2)OCCN3S(=O)(=O)c2ccc(C)cc2)cc1 [Compound C0001] | 75.2 | 66.6 | 52.9 | 129.3 | 184.3 | 33.9 | – | – | – | – | – | – | – | – | –
13 | O=C1CN(Cc2ccccc2)C2(CCN(C3CCCCC3)CC2)N1 [C0137M (P7)] | 95.6 | 78.1 | 115.1 | – | – | – | – | – | – | 180.8 | 55.8 | 193.8 | – | – | –
14 | O=S(=O)(c1cccc2cccnc12)N1CCC2(CC1)OCCN2S(=O)(=O)c1cccc2cccnc12 [Compound C0143M] | 47.1 | 59.3 | 94.7 | 81.0 | 193.3 | 86.5 | – | – | – | 81.0 | 86.5 | 193.3 | – | – | –
15 | COc1c2c(cc3c1C(CC(=O)Cc1ccc(C#N)cc1)[N+](C)(C)CC3)OCO2 (stereo not drawn) [Compound B0012] | 97.8 | 79.4 | 278.5 | 167.4 | 212.0 | 145.1 | – | – | – | – | – | – | – | – | –
16 | COc1c2c(cc3c1C(CC(=O)CCc1ccccc1)N(C)CC3)OCO2 (stereo not drawn) [Compound B0050] | 58.1 | 96.4 | 294.0 | 98.2 | 211.0 | 48.8 | – | – | – | – | – | – | – | – | –
17 | COc1cccc(OC)c1C(=O)CC1c2c(cc3c(c2OC)OCO3)CC[N+]1(C)C (stereo not drawn) [Compound B0023] | 99.4 | 100.1 | 81.8 | 166.1 | 245.3 | 28.4 | – | – | – | – | – | – | – | – | –
18 | CCCCN1CCC2(CC1)OCCN2S(=O)(=O)c1ccc(C(C)=O)cc1 [Compound C0101M] | 82.5 | 123.4 | 368.0 | – | – | – | – | – | – | 138.2 | 174.8 | 274.3 | – | – | –
19 | CC(=O)c1ccc(S(=O)(=O)N2CCOC23CCN(CC(=O)O)CC3)cc1 [Compound C0100M] | 103.6 | 110.6 | 411.8 | – | – | – | – | – | – | 173.6 | 195.6 | 245.9 | – | – | –
20 | CC(=O)c1ccc(S(=O)(=O)N2CC(CN(C)C)OC23CCN(CC2CC2)CC3)cc1 (stereo not drawn) [Compound C0128M] | 104.5 | 115.2 | 131.8 | – | – | – | – | – | – | 197.8 | 63.9 | 286.0 | – | – | –
21 | COc1c2c(cc3c1C(CC(=O)c1ccc(N4CCOCC4)cc1)[N+](C)(C)CC3)OCO2 (stereo not drawn) [Compound B0004] | 102.8 | 85.8 | 110.8 | 170.3 | 231.7 | 72.0 | – | – | – | – | – | – | – | – | –
22 | O=C1CN(Cc2ccccc2)C2(CCNCC2)N1 [Compound C0115M] | 105.7 | 102.0 | 249.3 | – | – | – | – | – | – | – | – | – | 177.2 | 226.8 | 118.4
